The subject of one data set is Pol A. In words: Mutagenicity test, growth inhibition, strain Pol A. The data set is classed as cell-based, Bacillus subtilis. As to conditions: concentration 0.1 M. The method, then:
(§1) The mutagenicity of Gly .PSI. Leu and Gly .PSI. Ile was examined by a variation of the Ames test using repair-deficient strains of Bacillus subtilis.
(§2) The specific procedures by which these tests were conducted are described in the following references: […]

For a further data set, the system named is Wild type. In words: Mutagenicity test, growth inhibition, wild type strain. The data set is classed as cell-based, Bacillus subtilis. As to conditions: concentration 0.1 M. As to the method: as §1, §2
Another data set deals with FB-13. In words: Mutagenicity test, growth inhibition, strain FB-13. The data set is classed as cell-based, Bacillus subtilis. As to conditions: concentration 0.1 M. As to the method: as §1, §2
The subject of a further data set is MC-1. In words: Mutagenicity test, growth inhibition, strain MC-1. The data set is classed as cell-based, Bacillus subtilis. The conditions noted are these: concentration 0.1 M. The method, then: as §1, §2
The test system of another data set is Hcr-9. Briefly: Mutagenicity test, growth inhibition, strain Hcr-9. The data set is classed as cell-based, Bacillus subtilis. As to the method:
as §1, §2

Data set [1] deals with repair-deficient strains of Bacillus subtilis. In words: Mutagenicity test, variation of the Ames test (overall result). The data set is classed as cell-based. As to conditions: results of Table 2b. The method, then: as §1, §2
(In general: The Ames test detects mutagens through reverse mutation in bacteria.)

The test system of data set [2] is methionine adenosyl transferase (MAT). From the text: Possible mutagenic effects of pseudodipeptides were examined two ways. One possible route for a metabolic complication is via the action of methionine adenosyl transferase (MAT). Ethionine (which contains a thiomethylene linkage) is known to be both a carcinogen and a substrate for MAT.
Another data set concerns Swiss Wistar mice. Briefly: Acute toxicity and weight gain of Swiss Wistar mice injected I.P. The conditions noted are these: dose levels 44-432 mg/Kg, five mice per dose level. In kind it is in vivo. The method, then:
One example of the low toxicity of the compounds of this invention is the results achieved with mice on treatment with Gly .PSI. Leu. In the test Swiss Wistar mice were injected I.P. with Gly .PSI. Leu at the dose levels indicated below. Five mice were tested at each dose level. […] The behavior of the animals was observed closely for 7 days after injection.

For data set [3] the following is noted: rapid destruction by proteolysis; cited from earlier work.

The values below come from US4631270A, “Therapeutically useful pseudopeptides, compositions containing the same and methods of preparation and use” (priority 1985, dated 1986).

Like-named read-outs stand apart in the source and are kept apart here.

With `CC[C@H](C)[C@H](SCCN)C(=O)O` [Gly .PSI. Ile], the “Growth Inhibition of Bacterial Strains in mm, Pol A” value with Pol A was 0 mm. Besides, the “Growth Inhibition of Bacterial Strains in mm, Wild type” value in the data set on Wild type was determined as 0 mm. In the data set with FB-13, the “Growth Inhibition of Bacterial Strains in mm, FB-13” value came out at 0 mm. Besides, the “Growth Inhibition of Bacterial Strains in mm, MC-1” value in the data set with MC-1 turned out to be 0 mm. In the data set with Hcr-9, the “Growth Inhibition of Bacterial Strains in mm, Hcr-9” value worked out at 0 mm. Moreover, in data set [1], the mutagenicity result is given as “neither Gly .PSI. Leu nor Gly .PSI. Ile behaves as a mutagen”.

As for `CC(C)CC(SCCN)C(=O)O` (centres unmarked) [Gly .PSI. Leu, pseudoglycylleucine], the “Growth Inhibition of Bacterial Strains in mm, Pol A” value with Pol A is on record as 0 mm. For the same compound, the “Growth Inhibition of Bacterial Strains in mm, Wild type” value in the data set on Wild type amounted to 0 mm. Further, the Counts/Min transferred is given as 16,620 Counts/Min in data set [2] (Expt I, concentration 12 mM, None = 15,760) and 7,990 Counts/Min in data set [2] (Expt II, concentration 80 mM, None = 7,380). Also, the “effect on MAT activity” value in data set [2] (possible substrate or competitive inhibitor of MAT) is given as “neither Gly .PSI. Leu nor Gly .PSI. D-Leu has a measurable effect on MAT activity”. Further, the “Growth Inhibition of Bacterial Strains in mm, FB-13” value with FB-13 is 0 mm. For the same compound, the “Growth Inhibition of Bacterial Strains in mm, MC-1” value in the data set with MC-1 was 0 mm. The “Growth Inhibition of Bacterial Strains in mm, Hcr-9” value with Hcr-9 (concentration 0.1 M) is 0 mm. Further, in data set [1], the mutagenicity entry is “neither Gly .PSI. Leu nor Gly .PSI. Ile behaves as a mutagen”. In addition, in the data set on Swiss Wistar mice, the “signs of acute toxicity” value is recorded as “In no case did any of the mice show any signs of acute toxicity”.

Consider “pGlu-His-Trp-Ser-Tyr-Gly-Leu-Arg-Pro-Gly-NH2 [Luteinizing hormone-releasing hormone]”, for which the biological half-life in data set [3] is given as 2 min.
